This note sets out measurements from PMC8587015, “AGSE: A Novel Grape Seed Extract Enriched for PP2A Activating Flavonoids That Combats Oxidative Stress and Promotes Skin Health” (Molecules, 2021).

Several values for one entry are separate records, joined by “and”; a condition that tells them apart may be missing. Identical values can stand only once. Bounds are passed on as bounds.

One test deals with T1, PME-1 (Protein phosphatase methylesterase 1) (Homo sapiens, UniProt Q9Y570).
T1 sequence (Q9Y570 1-386): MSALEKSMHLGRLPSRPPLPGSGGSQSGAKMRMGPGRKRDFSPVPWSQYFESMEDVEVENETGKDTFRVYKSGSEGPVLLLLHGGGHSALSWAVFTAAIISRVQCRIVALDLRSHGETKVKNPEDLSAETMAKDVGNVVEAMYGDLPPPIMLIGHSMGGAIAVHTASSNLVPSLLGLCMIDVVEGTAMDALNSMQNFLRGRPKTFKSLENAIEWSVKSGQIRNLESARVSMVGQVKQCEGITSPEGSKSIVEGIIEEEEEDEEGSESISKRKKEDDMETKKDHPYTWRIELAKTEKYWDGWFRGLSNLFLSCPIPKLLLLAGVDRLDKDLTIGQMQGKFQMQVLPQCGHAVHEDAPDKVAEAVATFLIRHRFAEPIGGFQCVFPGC
In words: Demethylation of PP2A by PME-1, radioactive filter binding assay. The class given is biochemical.
Details: not given
As for the experimental part:
[^3H]-labeled methylated PP2A AC dimer was prepared by incubating PP2A, LCMT1 and [^3H]-SAM (PerkinElmer; Waltham, MA, USA) in 50 mM MOPS-Na (pH 7.2), 5 mM MgCl2, and 1 mM DTT at room temperature for 1 h. Demethylation of PP2A by PME-1 (Protein phosphatase methylesterase 1) was measured using the radioactive filter binding assay format. 20 nM PME-1 was incubated for 15 min with extract or compound, then 20 nM of [^3H]-labeled methylated PP2A AC dimer was added. Reactions were run at room temperature for 30 min then applied to a 96-well filter plate (MilliporeSigma; Burlington, MA, USA.) containing 30% TCA where proteins were precipitated and separated from the excess of [^3H]-SAM by washing with 70% ethanol. [^3H]-incorporation was measured using TopCount NXT scintillation counter (PerkinElmer; Waltham, MA, USA). IC50 values were generated from dose–response curves using a four-parameter logistic curve fit in SigmaPlot (Systat Software, Inc., Palo Alto, CA, USA).
Turning to `Oc1ccc(/C=C/c2cc(O)cc(O)c2)cc1` [Resveratrol], the “activity in preventing PP2A demethylation (in words)” value is recorded as “does not function through this PP2A mechanism”.

Still in this test, the particulars now being: GSE flavonoids / grape seed components; read-out: IC50, PP2A demethylation activity assay.
For `O=c1cc(-c2ccc(O)c(O)c2)oc2cc(O[C@@H]3O[C@H](CO)[C@@H](O)[C@H](O)[C@H]3O)cc(O)c12` [Luteolin 7-O-B-glucoside], the 50% inhibitory concentration (IC50) is greater than 25 µM.
Consider `COc1ccc(-c2coc3cc(O)ccc3c2=O)cc1` [Formonoetin], for which the IC50 was greater than 15 µM.
As for `C[C@@H]1O[C@@H](OC[C@H]2O[C@@H](Oc3c(-c4ccc(O)c(O)c4)oc4cc(O)cc(O)c4c3=O)[C@H](O)[C@@H](O)[C@@H]2O)[C@H](O)[C@H](O)[C@H]1O` [Rutin], the IC50 is greater than 15 µM.
As for `O=c1cc(-c2ccccc2)oc2cc(O)c(O)c(O)c12` [Baicalein], the half-inhibitory concentration (IC50) worked out at 3.4 µM.
For `O=C1C[C@@H](c2ccc(O)c(O)c2)Oc2cc(O)cc(O)c21` [Eriodictyol], the 50% inhibitory concentration (IC50) was greater than 25 µM.
Consider `O=c1cc(-c2ccc(O)c(O)c2)oc2c([C@@H]3O[C@H](CO)[C@@H](O)[C@H](O)[C@H]3O)c(O)cc(O)c12` [Orientin], for which the concentration for half-maximal inhibition (IC50) was greater than 25 µM.
The same measure, in the same setting: the result for `CC(=O)Oc1cc(O)c2c(c1)OC(c1ccc(OC(C)=O)c(OC(C)=O)c1)C(OC(C)=O)C2=O` (stereo not drawn) [2-(acetyloxy)-4-[3,7-bis(acetyloxy)-5-hydroxy-4-oxo-3,4-dihydro-2H-chromen-2-yl]phenyl acetate] reads greater than 15 µM; that for `Oc1cccc(O)c1O` [Pyrogallol], roughly 15 µM.
In the case of `O=c1cc(-c2ccc(O)c(O)c2)oc2cc(O)c([C@@H]3O[C@H](CO)[C@@H](O)[C@H](O)[C@H]3O)c(O)c12` [Isoorientin], the IC50 was greater than 25 µM.
Still for that read-out and setting: the result for `Oc1cc(O)c2c(c1)O[C@H](c1cc(O)c(O)c(O)c1)[C@H](O)C2` [Epigallocatechin] reads greater than 15 µM; that for `COC(=O)Cc1cc(=O)oc2cc(OC)c(OC)cc12` [Methyl 6,7-dimethoxycoumarin-4-acetate], greater than 25 µM.
Turning to `O=c1c(O[C@@H]2O[C@H](CO)[C@@H](O)[C@H](O)[C@H]2O)c(-c2ccc(O)c(O)c2)oc2cc(O)cc(O)c12` [Isoquercetin], the half-maximal inhibitory concentration (IC50) was greater than 15 µM.
In the case of `O=c1c(O)c(-c2ccc(O)cc2O)oc2cc(O)cc(O)c12` [Morin], the half-inhibitory concentration (IC50) was greater than 15 µM.
Consider `COc1cc(-c2oc3cc(O)cc(O)c3c(=O)c2O)cc(OC)c1OC` [3,5,7-Trihydroxy-3′,4′,5′-Trimethoxyflavone], for which the 50% inhibitory concentration (IC50) was greater than 15 µM.
Take `COc1cc(C(=O)O)ccc1O` [Vanillic acid]: the 50% inhibitory concentration (IC50) was greater than 15 µM.
On to `Oc1cc(O)c2c(c1)O[C@H](c1ccc(O)c(O)c1)[C@H](O)[C@H]2c1c(O)cc(O)c2c1O[C@H](c1ccc(O)c(O)c1)[C@@H](O)C2` [Procyanidin B1], for which the IC50 is greater than 35 µM.
For `COc1cc(O)c(C(=O)/C=C/c2ccc(O)cc2)c(OC)c1` [2′,4-dihydroxy-4′,6′-dimethoxychalcone], the IC50 was greater than 25 µM.
`Oc1cc(O)c2c(c1)O[C@H](c1ccc(O)c(O)c1)[C@H](O)[C@H]2c1c(O)cc(O)c2c1O[C@H](c1ccc(O)c(O)c1)[C@H](O)C2` [Procyanidin B2]: the concentration for half-maximal inhibition (IC50) is greater than 35 µM.
With `COc1cc(C(=O)O)cc(OC)c1O` [Syringic acid], the IC50 is greater than 15 µM.
Take `O=C(O)/C=C/c1ccc(O)c(O)c1` [Caffeic Acid]: the 50% inhibitory concentration (IC50) was greater than 15 µM.
For `CC(C)(C)C(O)(CCc1ccc(Cl)cc1)Cn1cncn1` (stereo not drawn) [Tebuconazole], the IC50 is greater than 15 µM.
As for `COc1c(O)cc2oc3cc(O)c(CC=C(C)C)c(O)c3c(=O)c2c1CC=C(C)C` [Mangostine], the IC50 was found to be 1.7 µM.
Same read-out and setting: the result for `CC(C)NC(=O)N1CC(=O)N(c2cc(Cl)cc(Cl)c2)C1=O` [Iprodione] reads greater than 15 µM.
For the molecule `COc1ccc(-c2coc3cc(O)cc(O)c3c2=O)cc1` [Biochanin a], the IC50 was roughly 15 µM.
With `CC(C)(O)[C@@H]1[C@H]2OC(=O)[C@@H]1[C@]1(O)C[C@H]3O[C@]34C(=O)O[C@H]2[C@]14C` [Picrotin], the IC50 is greater than 25 µM.
Take `Oc1ccc(/C=C/c2cc(O)cc(O)c2)cc1` [Resveratrol]: the IC50 was greater than 100 µM.
Take `O=c1c(O)c(-c2cc(O)c(O)c(O)c2)oc2cc(O)cc(O)c12` [Myricetin]: the half-inhibitory concentration (IC50) was 0.99 µM.
For `Oc1cc(O)c2cc(O)c(-c3ccc(O)c(O)c3)[o+]c2c1` [Cyanidin chloride], the 50% inhibitory concentration (IC50) turned out to be 4.3 µM.
In the case of `O=c1c(O)c(-c2ccc(O)c(O)c2)oc2cc(O)c(O)c(O)c12` [Quercetagetin], the IC50 was 0.5 µM and ~0.5 µM.
Same read-out and setting: the same measure for `Cc1ccc(O)c(O)c1` [4-methylcatechol]: greater than 15 µM; for `C=C[C@@]1(C)CC(=O)[C@]2(O)[C@@]3(C)[C@@H](O)CCC(C)(C)[C@@H]3[C@H](O)[C@H](OC(C)=O)[C@@]2(C)O1` [Forskolin]: greater than 25 µM.
In the case of `COc1cc(OC)c2c(c1)OC(c1ccc(O)cc1)CC2=O` (stereo not drawn) [5,7-dimethoxy-4′hydroxyflavanone], the concentration for half-maximal inhibition (IC50) is greater than 25 µM.
Take `Oc1cc(O)cc(O)c1` [Phloroglucinol]: the half-maximal inhibitory concentration (IC50) is greater than 15 µM.
Consider `C=CCc1ccc(O)c(OC)c1` [Eugenol], for which the IC50 is greater than 15 µM.
On to `O=C(O)c1cc(O)c(O)c(O)c1` [Gallic acid], for which the 50% inhibitory concentration (IC50) was greater than 15 µM.
As to `CO/C=C(/C(=O)OC)c1ccccc1Oc1cc(Oc2ccccc2C#N)ncn1` [Azoxystrobin], the concentration for half-maximal inhibition (IC50) is greater than 15 µM.
On to `Oc1cc(O)c2cc(O)c(-c3cc(O)c(O)c(O)c3)[o+]c2c1` [Delphinidin], for which the IC50 was 5.1 µM.
With `COc1ccc(-c2oc3cc(O)cc(O)c3c(=O)c2O)cc1` [Kaempferide], the 50% inhibitory concentration (IC50) was 2 µM.
Same read-out and setting: the result for `Oc1cc(O)c2c(c1)O[C@H](c1ccc(O)c(O)c1)[C@@H](O)C2` [Catechin] reads greater than 15 µM.
The same measure, in the same setting: the result for `O=C(O[C@@H]1Cc2c(O)cc(O)cc2O[C@@H]1c1ccc(O)c(O)c1)c1cc(O)c(O)c(O)c1` [Epicatechin gallate] reads 1.4 µM; that for `O=c1cc(-c2ccc(O)c(O)c2)oc2cc(O)cc(O)c12` [Luteolin], 1.7 µM.
Take `CCCCC(C#N)(Cn1cncn1)c1ccc(Cl)cc1` (stereo not drawn) [Myclobutanil]: the half-maximal inhibitory concentration (IC50) is greater than 15 µM.
Consider `O=c1cc(-c2ccc(O)cc2)oc2cc(O)cc(O)c12` [Apigenin], for which the IC50 is greater than 15 µM.
In the case of `Oc1cc(O)c2c(c1)O[C@H](c1ccc(O)c(O)c1)[C@@H](O)[C@@H]2c1c(O)cc(O)c2c1O[C@H](c1ccc(O)c(O)c1)[C@@H](O)C2` [Procyanidin B3], the IC50 is greater than 35 µM.
Consider `O=c1c(-c2ccc(O)cc2)coc2cc(O)ccc12` [Diadzein], for which the concentration for half-maximal inhibition (IC50) was greater than 15 µM.
Same read-out and setting: the same measure for `O=C(O)[C@H]1O[C@@H](Oc2cc3oc(-c4ccc(O)cc4)cc(=O)c3c(O)c2O)[C@H](O)[C@@H](O)[C@@H]1O` [Scutellarin]: 4.9 µM; for `C[C@@H]1O[C@@H](O[C@H]2[C@H](Oc3cc(O)c4c(c3)O[C@H](c3ccc(O)cc3)CC4=O)O[C@H](CO)[C@@H](O)[C@@H]2O)[C@H](O)[C@H](O)[C@H]1O` [Naringin]: greater than 25 µM; for `O=c1c(O)c(-c2ccc(O)c(O)c2)oc2cc(O)cc(O)c12` [Quercetin]: 2.5 µM.
In the case of `O=c1c(-c2ccc(O)cc2)coc2cc(O[C@@H]3O[C@H](CO)[C@@H](O)[C@H](O)[C@H]3O)ccc12` [Diadzin], the IC50 was greater than 15 µM.
Still for that read-out and setting: the result for `COc1ccc(-c2cc(=O)c3c(O)cc(O[C@@H]4O[C@H](CO[C@@H]5O[C@@H](C)[C@H](O)[C@@H](O)[C@H]5O)[C@@H](O)[C@H](O)[C@H]4O)cc3o2)cc1O` [Diosmin] reads roughly 25 µM; that for `COc1cc(-c2oc3cc(O)cc(O)c3c(=O)c2O)ccc1O` [3,5,7,4′-Tetrahydroxy-3′-methoxyflavone], greater than 15 µM; that for `O=C(O[C@@H]1Cc2c(O)cc(O)cc2O[C@@H]1c1cc(O)c(O)c(O)c1)c1cc(O)c(O)c(O)c1` [Epigallocatechin gallate], 2.6 µM.
Regarding `O=c1c(O)c(-c2ccc(O)c(O)c2)oc2c(O)c(O)cc(O)c12` [Gossypetin], the IC50 stood at 4.9 µM.
Take `COc1ccc(-c2cc(=O)c3c(O)cc(O)c(-c4cc(-c5cc(=O)c6c(O)cc(OC)cc6o5)ccc4OC)c3o2)cc1` [Sciadopitysin]: the IC50 was found to be 1.1 µM.
`C[C@@H]1O[C@@H](OC[C@H]2O[C@@H](Oc3cc(O)c4c(c3)O[C@H](c3ccc(O)cc3)CC4=O)[C@H](O)[C@@H](O)[C@@H]2O)[C@H](O)[C@H](O)[C@H]1O` [Narirutin]: the IC50 is greater than 25 µM.

Still in this test, the particulars now being: IC50, PP2A demethylation activity assay, GSE flavonoids / grape seed components.
As to `COP(=S)(OC)SCN1C(=O)c2ccccc2C1=O` [Phosmet], the IC50 is greater than 15 µM.

The term IC50 denotes the concentration that gives 50% inhibition.
